Assay results as given in paper PMC7278020, “Triterpenic Acids as Non-Competitive α-Glucosidase Inhibitors from Boswellia elongata with Structure-Activity Relationship: In Vitro and In Silico Studies” (Biomolecules, 2020).
Where two headings read alike, the source gives them in different places.

Assays:
[1] = molecular target: T1, α-Glucosidase enzyme (E.C. 3.2.1.20) (Saccharomyces cerevisiae, UniProt P53341); test: biochemical
T1 construct: purchased Sigma-Aldrich G0660-750UN
Description: (§1) α-Glucosidase enzyme (E.C. 3.2.1.20) from Saccharomyces cerevisiae were purchased from Sigma-Aldrich (Darmstadt, Hesse, Germany) with product number of G0660-750UN and their inhibition assay was carried out by using 0.1 M phosphate buffer (pH 6.8) solution at 37 °C. […] For the kinetics studies, different concentrations (0.1, 0.2, 0.4 and 0.8 mM) of p-nitrophenyl-α-D-glucopyranoside (substrate) were used. In control the tested compounds were replaced with DMSO-d6 (7.5% final). […] Three time the experiment was repeated having triplicate of each samples. The % inhibition was calculated by using the following formula:% Inhibition = 100 − (OD test well/OD control) ×100 (OD = Optical density)

[2] = molecular target: T2, α-glucosidase enzyme (Saccharomyces cerevisiae, UniProt P53341); test: Kinetics studies on α-glucosidase (Lineweaver–Burk, secondary replot, Dixon plot); format: biochemical; conditions: for Type of Inhibition: Lineweaver–Burk plots
T2 construct: purchased Sigma-Aldrich G0660-750UN
Description: as §1
The type of inhibition was determined by Lineweaver–Burk plots, the reciprocal of the rate of the reaction was plotted against the reciprocal of substrate concentrations to monitor the effect of inhibitor on both Km and Vmax. […] In non-competitive inhibition, the Vmax of enzyme decreased, while Km are not affected. […] The secondary replots of Lineweaver–Burk plots were used to determine the Ki values.

[3] = molecular target: T1, α-Glucosidase enzyme (E.C. 3.2.1.20); conditions: the previous investigation; acetyl group at C-3 position; cited from earlier work
[4] = molecular target: T2, α-glucosidase enzyme; design: method as in PMID 29030193; conditions: cited from earlier work
[5] = substrate 0.1, 0.2, 0.4 and 0.8 mM, read-out: Ki = µM ± SEM
[6] = pH 6.8, 37 °C, substrate p-nitrophenyl-α-D-glucopyranoside 0.7 mM, NA = Not active, read-out: IC50 = µM ± SEM

T2 sequence (P53341 whole entry): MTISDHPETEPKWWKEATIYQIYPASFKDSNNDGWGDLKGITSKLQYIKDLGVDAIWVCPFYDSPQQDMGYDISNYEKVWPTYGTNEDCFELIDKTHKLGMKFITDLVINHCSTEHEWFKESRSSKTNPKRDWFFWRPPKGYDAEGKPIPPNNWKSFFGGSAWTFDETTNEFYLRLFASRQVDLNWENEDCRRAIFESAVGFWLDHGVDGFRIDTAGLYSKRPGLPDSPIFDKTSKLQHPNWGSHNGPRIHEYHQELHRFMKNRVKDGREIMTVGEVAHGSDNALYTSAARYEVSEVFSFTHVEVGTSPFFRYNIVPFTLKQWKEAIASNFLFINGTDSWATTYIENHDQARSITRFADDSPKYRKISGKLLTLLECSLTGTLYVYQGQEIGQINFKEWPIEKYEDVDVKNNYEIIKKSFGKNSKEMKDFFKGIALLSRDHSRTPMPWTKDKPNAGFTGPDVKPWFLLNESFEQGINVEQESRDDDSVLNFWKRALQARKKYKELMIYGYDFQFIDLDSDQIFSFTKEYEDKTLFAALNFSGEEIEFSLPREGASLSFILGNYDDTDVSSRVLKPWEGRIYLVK
T1 sequence (P53341 whole entry): as above

With `CC(=O)OC1CCC2(C)C3=C(CCC2C1(C)C)C1(C)CCC(C(C)CCC=C(C)C)C1(C)CC3` (stereo not drawn) [Compound 1, 5α-tirucalla-8,24-dien-3α-acetate] the inhibition at 1000 µM [1] was < 50% and the “IC50 = µM ± SEM” value ([1]; pH 6.8, 37 °C, substrate p-nitrophenyl-α-D-glucopyranoside 0.7 mM, NA = Not active) was “inactive”.

For `CC(C)=CCC[C@H](C)C1CC[C@]2(C)C3=C(CC[C@@]12C)[C@@]1(C)CC[C@@H](O)C(C)(C)C1CC3` (stereo partly drawn) [Compound 2, 5α-Tirucalla-8,24-dien-3α-ol], the inhibition at 1000 µM [1] was < 50%.

With `CC(=O)O[C@@H]1CC[C@]2(C)C3=C(CCC2C1(C)C)[C@@]1(C)CCC([C@H](CCC=C(C)C)C(=O)O)[C@]1(C)CC3` (stereo partly drawn) [Compound 3, 3α-Acetoxytirucall-8,24-dien-21-oic acid] the “Type of Inhibition” value [2] was “Non-competitive”, the Ki [2, 5] was 51.1 ± 0.63 µM and the IC50 [1, 6] was 56.8 ± 1.3 µM.

In the case of `CC(=O)O[C@@H]1CC[C@]2(C)C3=CC=C4C5[C@@H](C)[C@H](C)CC[C@]5(C)CC[C@@]4(C)[C@]3(C)CCC2[C@@]1(C)C(=O)O` (stereo partly drawn) [Compound 4, 3-O-Acetyl-9,11-dehydro-β-boswellic acid], the Ki [2] is reported as 7.05 ± 0.75 µM, the “Type of Inhibition” value [2] is reported as “Non-competitive” and the IC50 [1] is reported as 9.9 ± 0.48 µM. For the same compound, the “times more active than the standard inhibitor acarbose” value ([1]; from IC50 values) was 94 times.

For `C[C@@H]1CC[C@]2(C)CC[C@]3(C)C(=CC=C4[C@@]5(C)CC[C@@H](O)[C@](C)(C(=O)O)C5CC[C@]43C)C2[C@H]1C` (stereo partly drawn) [Compound 5, 9,11-Dehydro-β-boswellic acid], the “Type of Inhibition” value [2] was “Non-competitive”, the Ki [2, 5] was 15.3 ± 0.54 µM and the IC50 [1, 6] was 20.9 ± 0.05 µM.

For `CC(=O)O[C@@H]1CC[C@@]2(C)[C@@H](CC[C@]3(C)[C@@H]2CC=C2[C@@H]4[C@@H](C)[C@H](C)CC[C@]4(C)CC[C@]23C)[C@@]1(C)C(=O)O` [Compound 6, 3-Acetyl-β-boswellic acid], the “glucosidase inhibition (in words)” value [3] is given as “most promising glucosidase inhibitors”.

For `CC(=O)O[C@@H]1CC[C@@]2(C)[C@@H](CC[C@]3(C)[C@@H]2C(=O)C=C2[C@@H]4[C@@H](C)[C@H](C)CC[C@]4(C)CC[C@]23C)[C@@]1(C)C(=O)O` [Compound 7, 3-Acetyl 11-keto-β-boswellic acid], the “glucosidase inhibition (in words)” value [3] is listed as “most promising glucosidase inhibitors”.

For `CO[C@@H]1C=C2C3[C@@H](C)[C@H](C)CC[C@]3(C)CC[C@@]2(C)[C@]2(C)CCC3[C@](C)(CC[C@@H](O)[C@]3(C)C(=O)O)C12` (stereo partly drawn) [Compound 11, 11α-methoxy-β-boswellic acid], the Ki [2] was 8.05 ± 0.38 µM, the “Type of Inhibition” value [2] was “Non-competitive” and the IC50 [1] was 14.9 ± 1.31 µM.

In the case of `CC(=O)O[C@@H]1CC[C@@]2(C)[C@@H](CC[C@]3(C)[C@@H]2CC=C2[C@@H]4CC(C)(C)CC[C@]4(C)CC[C@]23C)[C@@]1(C)C(=O)O` [Compound 12, 3-Acetyl-α-boswellic acid], the “glucosidase inhibition (in words)” value [3] is listed as “most promising glucosidase inhibitors”.

In the case of `C[C@@H]1CC[C@H]2[C@@H]1C1C(CC[C@]2(C)O)C1(C)C` (some centres unmarked) [Compound 19, Viridiflorol], the inhibition at 1000 µM [1] is reported as < 50%.

In the case of `C/C1=C\CC/C(C)=C/C[C@H](C(C)(C)O)CC/C(C)=C/CC1` [Compound 20, Iso-serratol], the inhibition at 1000 µM [1] is reported as < 50%.

For `CC1(C)CC[C@]2(C(=O)O)CC[C@]3(C)C(=CC[C@@H]4[C@@]5(C)CC[C@H](O)C(C)(C)[C@@H]5CC[C@]43C)[C@@H]2C1` [oleanolic acid], the “Type of inhibition of α-glucosidase (literature)” value [4] is listed as “non-competitive inhibitors”.

In the case of `C[C@H]1[C@H](C)CC[C@]2(C(=O)O)CC[C@]3(C)C(=CC[C@@H]4[C@@]5(C)CC[C@H](O)C(C)(C)[C@@H]5CC[C@]43C)[C@H]12` [ursolic acid], the “Type of inhibition of α-glucosidase (literature)” value [4] is given as “non-competitive inhibitors”.
